The text below walks through data of ChEMBL document CHEMBL3507680, “University of Dundee, Gates Library screen for HepG2 cell viability”.

The series is described as follows: Human HepG2 cell viability assay in 384 well format. In kind it is toxicity, cell-based. More on the design: dose 125 nL, time 70.5 hour; cytotoxicity at 70.5 h: concentration not given beside the values. The note with it: HepG2 cells, read-out: Inhibition.

`Cc1csc(CNC(=O)NCC(O)c2ccc(F)cc2F)n1` (centres undefined): the cytotoxicity at 70.5 h was 5.96%. With `Cc1csc(CNC(=O)NCC(O)c2ccc(F)c(F)c2)n1` (centres undefined) the figure was 10.8%; with `O=C(NCC1(N2CCOCC2)CCSC1)Nc1cn[nH]c1` (centres undefined), -10.2%.

On to `Cc1nc(CCNC(=O)NCC(O)c2cccc(Cl)c2)cs1` (centres undefined), for which the cytotoxicity at 70.5 h was -7.03%.

With `CCN(Cc1ccco1)C(=O)NCc1nnc2n1CCCCC2`, the cytotoxicity at 70.5 h is 5.47%. The value for `O=C(CN1C(=O)c2ccccc2CS1(=O)=O)c1ccccc1` was -6.1%; that for `CC(=O)c1cccc(OCCCC(=O)N(C)CC(N)=O)c1` was -7.52%.

On to `Cc1cc(S(=O)(=O)N2CCCN3CCCC3C2)ccc1F` (centres undefined), for which the cytotoxicity at 70.5 h was -9.81%.

For the compound `Cc1cc(CNC(=O)NCCOc2ccc(F)c(F)c2)on1`, the cytotoxicity at 70.5 h was -6.89%. With `NC(=O)c1cccc(CNC(=O)NCCOc2ccc(F)c(F)c2)c1` the figure was -2.9%; with `CN(Cc1ccco1)Cc1ccccc1CNC(=O)c1cnc[nH]1`, 13.3%.

In the case of `COc1ccccc1OCC(=O)NS(=O)(=O)c1ccc(F)cc1F`, the cytotoxicity at 70.5 h is -8.29%.

Turning to `Nc1ccnc(CNc2cc(F)ccc2OCC2CCCO2)n1` (centres undefined), the cytotoxicity at 70.5 h was -9.07%. The value for `Fc1ccc(OCC2CCCO2)c(NCc2noc(C3CC3)n2)c1` (centres undefined) was -7.27%. Turning to `COc1ccc(F)cc1C(=O)Nc1nnc(C)s1`, the cytotoxicity at 70.5 h amounted to 6.71%. With `CCOC(=O)NC(CNC(=O)c1cc(Cl)ccn1)CC(C)C` (centres undefined) the figure was 5.7%; with `CCOC(=O)NC(CNC(=O)c1cccnc1SC)CC(C)C` (centres undefined), 8.28%; with `CCOC(=O)NC(CNC(=O)c1cccc(C)n1)CC(C)C` (centres undefined), 7.69%. For `CC(C)c1cc(C(=O)N2CCN(Cc3ccco3)CC2)n[nH]1`, the cytotoxicity at 70.5 h came out at 32.7%. With `O=C(NCCNc1ncccn1)c1cnc(-c2ccccc2)nc1` the figure was -2.38%.

On to `CCS(=O)(=O)NCCNC(=O)c1cnc(-c2ccccc2)nc1`, for which the cytotoxicity at 70.5 h was -8.98%. The value for `N#Cc1ccc(CNC(=O)NC2CCN(CC(F)(F)F)C2)cc1` (centres undefined) was -5.15%; that for `c1ccc(NCc2ccc(Cn3ccnc3)cc2)nc1` was 41.7%; that for `Cc1cc(C(=O)Nc2cccn(Cc3ccc(F)cc3)c2=O)no1` was 0.798%. With `CC(C)Nc1cccc(CNC(=O)N2CCCC2)c1`, the cytotoxicity at 70.5 h was -5.5%. With `COC(=O)CN(C(=O)c1ccc(-n2ccnc2)cc1)C1CC1` the figure was -1.73%; with `COCCN(CCC#N)Cn1cc(Cl)cn1`, -2.01%; with `COCC(C)N(C)C(=O)c1ccc2nncn2c1` (centres undefined), -2.4%.

Regarding `CCc1cc(N2CCCC(c3noc(CC)n3)C2)ncn1` (centres undefined), the cytotoxicity at 70.5 h is -5.13%. As to `Cn1cc(S(=O)(=O)NC(=O)C2(c3ccccc3)CCC2)cn1`, the cytotoxicity at 70.5 h was -4.68%. With `CCOC1CCN(C(=O)c2csc(S(N)(=O)=O)c2)CC1` the figure was -4.71%. `COCC(=O)Nc1ccc(Sc2nncn2C)c(Cl)c1`: the cytotoxicity at 70.5 h was found to be 10.4%. Regarding `Cn1cnnc1Sc1ccc(NC(=O)C2CC2)cc1Cl`, the cytotoxicity at 70.5 h is -9.39%. For the compound `Cc1cccc(C2(C(=O)NS(=O)(=O)c3cnn(C)c3)CCCC2)c1`, the cytotoxicity at 70.5 h is -1.9%. The value for `CSCC(C)(O)CNc1cccc(F)c1C#N` (centres undefined) was -15.5%; that for `Fc1ccc(OCCCN2CC(n3cccn3)C2)cc1` was -8.19%. With `CCc1nc(C2CCCN(c3ncc(Br)cn3)C2)no1` (centres undefined), the cytotoxicity at 70.5 h was -14.4%. With `CCn1nc(C)c(S(=O)(=O)Nc2ccccc2C(=O)OC)c1C` the figure was 11.2%; with `NS(=O)(=O)c1cc(C(=O)N2CCCCC2)cs1`, -4.34%; with `CN1CC(Nc2nc3c(cnn3C(C)(C)C)c(=O)[nH]2)CCC1=O` (centres undefined), -2.42%. With `CN(C)C(=O)c1ccc(OC2CCOCC2)cc1` the figure was -15.1%; with `C[S+]([O-])c1ccc(NC(=O)Cc2cccnc2)cc1F` (centres undefined), 11.1%; with `CCOC1CCCN(C(=O)c2[nH]nc(C3CC3)c2Br)C1` (centres undefined), -6.37%.

On to `CCOC1CCCN(C(=O)c2[nH]nc(C(C)C)c2Br)C1` (centres undefined), for which the cytotoxicity at 70.5 h was determined as 11.3%. Turning to `COc1ccccc1C(C)(C)NCc1ccc(C)o1`, the cytotoxicity at 70.5 h is -5.83%. As to `COc1ccnc(NCC2CN(C3CC3)CCO2)n1` (centres undefined), the cytotoxicity at 70.5 h came out at 10.1%. With `CN(Cc1cscn1)C1CCN(C(=O)OC(C)(C)C)CC1` the figure was 29.5%. As to `Cc1ncsc1C(=O)NCCNc1cnccn1`, the cytotoxicity at 70.5 h was -3.47%. Turning to `CC(C)(C)c1ncc(C(=O)NCCn2ccnc2)s1`, the cytotoxicity at 70.5 h amounted to 24.5%. Take `Cc1nc(C(C)(C)C)sc1C(=O)NCCn1cccn1`: the cytotoxicity at 70.5 h was -0.966%.

With `CC(C)CCNC(=O)c1ccc(Cl)c(NS(C)(=O)=O)c1`, the cytotoxicity at 70.5 h was -4.83%. With `CCN1CCN(c2ccc(C(=O)NC(C)C(=O)N(C)C)cc2)CC1` (centres undefined), the cytotoxicity at 70.5 h was -4.6%. With `CC(C)CS(=O)(=O)CC(=O)NC(C)(C)c1cccc(F)c1` the figure was 6.38%. The value for `Cc1cccc(C(C)(C)NC(=O)CS(=O)(=O)CC(C)C)c1` was -4.98%; that for `Cc1nn(C)c(C)c1NC(=O)CNc1ccc(F)c(C(F)(F)F)c1` was -2.51%; that for `CS(=O)(=O)CCN1CCC(=Cc2ccccc2)CC1` was -3.57%. As for `CC(NC(=O)c1cccs1)C(=O)NS(=O)(=O)c1cccc(C#N)c1` (centres undefined), the cytotoxicity at 70.5 h worked out at 2.5%. The value for `CC(NC(=O)c1cccs1)C(=O)NS(=O)(=O)Cc1ccc(C#N)cc1` (centres undefined) was 4.04%; that for `Cc1ccccc1C1(CN)CCCCC1` was 10.6%. The value for `Cc1ccccc1C1(CN)CCOCC1` was -6.58%. With `Cc1nn(C)c(C)c1CCC(=O)N1CCc2sccc2C1` the figure was 23.2%. In the case of `CN(C)C(=O)c1cccc(C[S+]([O-])CC(=O)NC2CCCC2)c1` (centres undefined), the cytotoxicity at 70.5 h came out at 5.53%. As for `Cn1ccc(C(=O)N(CC(F)(F)F)c2cccc(Cl)c2)cc1=O`, the cytotoxicity at 70.5 h was determined as 11.6%. Take `O=C(C1COc2ccccc2C1)N(CCO)Cc1ccccc1` (centres undefined): the cytotoxicity at 70.5 h was -1.94%. Consider `Cc1nn(C)c(C)c1CCC(=O)NCc1cccnc1OC1CCCC1`, for which the cytotoxicity at 70.5 h was -3.92%. Regarding `Cc1nc(C)c(CC(=O)NCc2cccnc2OC2CCCC2)c(=O)[nH]1`, the cytotoxicity at 70.5 h was -4.62%. The value for `CCC(C)(C)NC(=O)CN(Cc1cccc(O)c1)C1CCC(O)CC1` (centres undefined) was -4.94%; that for `CC(C(=O)Nc1ccc2ccccc2c1)N1CCC(n2ccnc2)CC1` (centres undefined) was -4.02%. The value for `COc1ccc(Cl)cc1-c1cc(NC(=O)C2CNC(=O)N2)[nH]n1` (centres undefined) was 1.69%.

As to `Cc1cnn(CC2CCCCN2C(=O)c2sccc2C#N)c1` (centres undefined), the cytotoxicity at 70.5 h is -4.1%. On to `CCCc1noc(CNc2cc(C[S+](C)[O-])ccc2Cl)n1` (centres undefined), for which the cytotoxicity at 70.5 h is -3.29%. With `Cc1cccc(C2(O)CCN(C(=O)c3ccc(N(C)C)cc3)CC2)c1C` the figure was 9.92%.

Turning to `CN(C)C(=O)C1CN(Cc2ccc(C#N)cc2)c2ccccc2O1` (centres undefined), the cytotoxicity at 70.5 h is 4.19%.

In the case of `CCOc1ccc(CN2C(=O)CC(C)(C(C)C)C2=O)nc1` (centres undefined), the cytotoxicity at 70.5 h was found to be 0.245%.
